These results are taken from PubChem BioAssay (NCI).

Test systems include A549 NSCLC; COLO 205 colon; HT29 colon; MCF7 breast; MDA-MB-435; OVCAR-4 ovarian; OVCAR-8 ovarian; RPMI-8226 leukemia; SK-MEL-2 melanoma; SK-OV-3 ovarian; SR leukemia.
Assay in all cases: NCI-60 cell line screen, 48 h

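Cultured in 96-well plates, cells were exposed to test compound for 48 hours across five concentrations. The concentration for full growth arrest is given as TGI.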

In the case of `COc1cc(/C=C/C(=O)OC[C@]23O[C@H]2[C@@H](OC2OC(C)C(O)C(O)C2O)C2C=CO[C@@H](OC4OC(CO)C(O)C(O)C4O)C23)ccc1O` (some centres not stated), the TGI in the assay with A549 NSCLC, in the assay with COLO 205 colon, in the assay on HT29 colon, in the assay with MCF7 breast, in the assay on MDA-MB-435 and in the assay on OVCAR-4 ovarian was above 100 µM each time. Also, the TGI in the assay on OVCAR-8 ovarian, with RPMI-8226 leukemia, with SK-MEL-2 melanoma, with SK-OV-3 ovarian and in the assay on SR leukemia was above 100 µM in each case.

Regarding `NC(=O)c1ccc(N)nc1`, the TGI in the assay with A549 NSCLC was above 400 µM; in the assay on COLO 205 colon, above 400 µM; in the assay with HT29 colon it was above 229 µM; in the assay with MCF7 breast it was above 400 µM; in the assay on MDA-MB-435, above 400 µM; in the assay with OVCAR-4 ovarian, above 400 µM. Besides, the TGI was above 400 µM in the assay with OVCAR-8 ovarian; 201 µM in the assay on RPMI-8226 leukemia; above 400 µM with SK-MEL-2 melanoma; above 400 µM in the assay on SK-OV-3 ovarian; above 400 µM with SR leukemia.

`O=C1CCCc2ccc3c(c21)CC1(Cc2cc4c(cc2C1)CCCC4)C3`: the TGI in the assay with A549 NSCLC was above 100 µM; in the assay on COLO 205 colon, 31.1 µM; with HT29 colon it was 50.9 µM; in the assay with MCF7 breast, 56.7 µM; in the assay on MDA-MB-435 it was 46.7 µM; with OVCAR-4 ovarian, 50.9 µM. Also, the TGI in the assay on OVCAR-8 ovarian is 47.4 µM; in the assay with RPMI-8226 leukemia, 35.5 µM; with SK-MEL-2 melanoma it was 48.9 µM; in the assay with SK-OV-3 ovarian, above 100 µM; in the assay on SR leukemia, 31.5 µM.

With `CC(C)OCC(O)COc1cc(=O)oc2ccccc12` (configuration not stated), the TGI with A549 NSCLC, in the assay on COLO 205 colon, in the assay on HT29 colon, with MCF7 breast, in the assay on MDA-MB-435 and in the assay on OVCAR-4 ovarian was above 100 µM in each case. Moreover, the TGI with OVCAR-8 ovarian, with RPMI-8226 leukemia, in the assay with SK-MEL-2 melanoma, with SK-OV-3 ovarian and with SR leukemia was above 100 µM each time.

`COc1ccc(/C=C/C=C2C(=O)NC(=S)NC2=O)cc1`: the TGI with A549 NSCLC was 46.2 µM; in the assay with COLO 205 colon it was 13.5 µM; with HT29 colon, 19.6 µM; with MCF7 breast, 22 µM; with MDA-MB-435, 7.77 µM; with OVCAR-4 ovarian, above 60.7 µM. In addition, the TGI is 13.1 µM with OVCAR-8 ovarian; 18.2 µM with RPMI-8226 leukemia; 35.3 µM in the assay with SK-MEL-2 melanoma; 33.2 µM in the assay on SK-OV-3 ovarian; 4.63 µM in the assay on SR leukemia.

As for `CC(C)=CCC[C@@H](C)c1c(O)c(O)c(C)c2nc3ccccc3nc12`, the TGI in the assay with A549 NSCLC is 9.15 µM; with COLO 205 colon it was 18.1 µM; in the assay with HT29 colon it was 17.5 µM; with MCF7 breast it was 13.4 µM; in the assay on MDA-MB-435 it was 18.3 µM; in the assay on OVCAR-4 ovarian, 19.9 µM. In addition, the TGI was 24.2 µM in the assay on OVCAR-8 ovarian; above 20.2 µM in the assay on RPMI-8226 leukemia; 9.26 µM with SK-MEL-2 melanoma; 21.7 µM in the assay on SK-OV-3 ovarian; above 100 µM in the assay with SR leukemia.

With `Cc1cc([C@H](C#N)c2nc3ccccc3s2)nc(Cl)n1`, the TGI in the assay on A549 NSCLC was above 100 µM; with COLO 205 colon it was 6.49 µM; in the assay on HT29 colon it was 21.4 µM; with MCF7 breast, above 100 µM; in the assay with MDA-MB-435 it was 19.6 µM; with OVCAR-4 ovarian it was above 100 µM. In addition, the TGI with OVCAR-8 ovarian is 14.3 µM; in the assay with RPMI-8226 leukemia it was 15.6 µM; with SK-MEL-2 melanoma it was above 100 µM; in the assay on SK-OV-3 ovarian, 56.5 µM; with SR leukemia it was above 100 µM.

Turning to `O=c1[nH]c(=O)n(COCCO)cc1-c1ccccc1`, the TGI with A549 NSCLC, with COLO 205 colon, with HT29 colon, with MCF7 breast, with MDA-MB-435 and with OVCAR-4 ovarian was above 100 µM throughout. Further, the TGI with OVCAR-8 ovarian, in the assay with RPMI-8226 leukemia, in the assay with SK-MEL-2 melanoma, in the assay on SK-OV-3 ovarian and in the assay with SR leukemia was above 100 µM throughout.

Take `O=C(NCCc1ccc(F)cc1)c1cc(/C=C/c2cc(O)ccc2O)ccc1O`: the TGI with A549 NSCLC is above 100 µM; in the assay with COLO 205 colon, 13.6 µM; in the assay on HT29 colon, 62.1 µM; with MCF7 breast, 10.1 µM; with MDA-MB-435, 22 µM; with OVCAR-4 ovarian, 12 µM. Besides, the TGI in the assay on OVCAR-8 ovarian is 13.6 µM; with RPMI-8226 leukemia, above 100 µM; in the assay on SK-MEL-2 melanoma, 7.95 µM; in the assay on SK-OV-3 ovarian, 27.9 µM; in the assay on SR leukemia it was above 30 µM.

Turning to `COC(=O)/C=C1\C(=O)N(C(C)=O)c2ccccc21`, the TGI is above 57.6 µM with A549 NSCLC; 29.3 µM in the assay on COLO 205 colon; 20.6 µM with HT29 colon; 28.2 µM with MCF7 breast; 32.2 µM with MDA-MB-435; 17.5 µM in the assay on OVCAR-4 ovarian. The TGI with OVCAR-8 ovarian was 45.6 µM; with RPMI-8226 leukemia it was 47.6 µM; in the assay on SK-MEL-2 melanoma it was 33.5 µM; with SK-OV-3 ovarian, 29.7 µM; with SR leukemia, above 27.5 µM.

Consider `O=C1NC(N2CCOCC2)=N/C1=C\c1ccccc1`, for which the TGI in the assay with A549 NSCLC, in the assay with COLO 205 colon, in the assay on HT29 colon, in the assay with MCF7 breast, in the assay with MDA-MB-435 and in the assay on OVCAR-4 ovarian was above 100 µM in each case. Moreover, the TGI in the assay with OVCAR-8 ovarian, with RPMI-8226 leukemia, with SK-MEL-2 melanoma, with SK-OV-3 ovarian and in the assay with SR leukemia was above 100 µM in each case.

With `CCOC(=O)C(C(N)=O)c1nc2cc([N+](=O)[O-])ccc2nc1/C=C(\O)c1ccc(C)cc1` (configuration not stated), the TGI in the assay with A549 NSCLC is above 74.1 µM; in the assay with COLO 205 colon, above 93.2 µM; with HT29 colon, above 100 µM; with MCF7 breast it was above 60.5 µM; in the assay with MDA-MB-435, above 100 µM; in the assay on OVCAR-4 ovarian, above 100 µM. The TGI in the assay on OVCAR-8 ovarian stood at 40.1 µM; in the assay with RPMI-8226 leukemia it was 40.6 µM; in the assay with SK-MEL-2 melanoma it was 48.9 µM; with SK-OV-3 ovarian, 39.4 µM; in the assay on SR leukemia, 25.9 µM.
